Test results as given in patent US12077503B2, “Substituted cyclic amides and their use as herbicides” (FMC CORPORATION, priority 2015, dated 2024).

Tests used:
Assay type in all cases: in vivo
[1] = system: crabgrass, large (large crabgrass, Digitaria sanguinalis); test: Test C preemergence; conditions: scale 0 to 100, 0 no effect, 100 complete control
Summary of the method: (§1)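 Visual 0 (no effect) to 100 (complete control) ratings versus controls, taken 13–15 d after treatment in the greenhouse; dash means no result. Compounds in a surfactant-containing non-phytotoxic solvent blend were applied preemergence to seeds in loam-sand soil or postemergence to 1- to 4-leaf plants (2–18 cm) in peat-based medium.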

[2] = system: ragweed (common ragweed, Ambrosia elatior); test: Test C preemergence; conditions: scale 0 to 100, 0 no effect, 100 complete control
Summary of the method: as §1

soybean (Glycine max) = test: Test C preemergence; conditions: scale 0 to 100, 0 no effect, 100 complete control
Summary of the method: as §1

[3] = system: morningglory (Ipomoea coccinea); test: Test C preemergence; conditions: scale 0 to 100, 0 no effect, 100 complete control
Summary of the method: as §1

[4] = system: velvetleaf (Abutilon theophrasti); test: Test C preemergence; conditions: scale 0 to 100, 0 no effect, 100 complete control
Summary of the method: as §1

[5] = system: oilseed rape (Brassica napus); test: Test C preemergence; conditions: scale 0 to 100, 0 no effect, 100 complete control
Summary of the method: as §1

[6] = system: pigweed (Amaranthus retroflexus); test: Test C preemergence; conditions: scale 0 to 100, 0 no effect, 100 complete control
Summary of the method: as §1

[7] = system: blackgrass (Alopecurus myosuroides); test: Test C preemergence; conditions: scale 0 to 100, 0 no effect, 100 complete control
Summary of the method: as §1

[8] = system: barnyardgrass (Echinochloa crus-galli); test: Test C preemergence; conditions: scale 0 to 100, 0 no effect, 100 complete control
Summary of the method: as §1

[9] = system: Galium (catchweed bedstraw, Galium aparine); test: Test C preemergence; conditions: scale 0 to 100, 0 no effect, 100 complete control
Summary of the method: as §1

[10] = system: ryegrass, Italian (Italian ryegrass, Lolium multiflorum); test: Test C preemergence; conditions: scale 0 to 100, 0 no effect, 100 complete control
Summary of the method: as §1

[11] = system: lambsquarters (Chenopodium album); test: Test C preemergence; conditions: scale 0 to 100, 0 no effect, 100 complete control
Summary of the method: as §1

[12] = system: waterhemp (common waterhemp, Amaranthus rudis); test: Test C preemergence; conditions: scale 0 to 100, 0 no effect, 100 complete control
Summary of the method: as §1

corn (Zea mays) = test: Test C preemergence; conditions: scale 0 to 100, 0 no effect, 100 complete control
Summary of the method: as §1

[13] = system: johnsongrass (Sorghum halepense); test: Test C preemergence; conditions: scale 0 to 100, 0 no effect, 100 complete control
Summary of the method: as §1

[14] = system: wheat (winter wheat, Triticum aestivum); test: Test C preemergence; conditions: scale 0 to 100, 0 no effect, 100 complete control
Summary of the method: as §1

[15] = system: barnyardgrass (Echinochloa crus-galli); test: Test G Post-Emergence Protocol
Protocol: Seeds of corn (Zea mays), giant foxtail (Setaria faberi), barnyardgrass (Echinochloa crus-galli), ivy-leaved morning glory (Ipomoea hederacea), redroot pigweed (Amaranthus retroflexus) and velvetleaf (Abutilon theophrasti) were sown in standard soil in pots. After cultivation for 8 days under controlled conditions in a glasshouse (at 24/16° C., day/night; 14 hours light; 65% humidity), the plants were sprayed with an aqueous spray solution derived from the formulation of the technical active ingredient in acetone/water (50:50) solution containing 0.5% Tween 20 (polyoxyethylene sorbitan monolaurate, CAS RN 9005-64-5) to give a final dose of 15.625, 62.5 or 250 g/ha of test compound.
The test plants were then grown on under controlled conditions in a glasshouse (at 24/16° C., day/night; 14 hours light; 65% humidity) and watered twice daily. After 13 days the test was evaluated (100=total damage to plant; 0=no damage to plant). A dash (-) means no test result.

CN1CC(c2cccc(OC(F)(F)C(F)F)c2)C(C(=O)Nc2ccc(F)c(F)c2F)C1=O (stereo not shown) [Compound 429]
Plant response rating, Crabgrass, Large ([1]; 31 g ai/ha): 95 | Plant response rating, Crabgrass, Large ([1]; 62 g ai/ha): 98 | Plant response rating, Crabgrass, Large ([1]; 125 g ai/ha): 98 | Plant response rating, Crabgrass, Large ([1]; 250 g ai/ha): 98 | Plant response rating, Ragweed ([2]; 31 g ai/ha): 0 | Plant response rating, Ragweed ([2]; 62 g ai/ha): 40 | Plant response rating, Ragweed ([2]; 125 g ai/ha): 75 | Plant response rating, Ragweed ([2]; 250 g ai/ha): 75 | Plant response rating, Soybean (soybean (Glycine max); 125 g ai/ha): 0 | Plant response rating, Soybean (soybean (Glycine max); 250 g ai/ha): 10 | Plant response rating, Morningglory ([3]; 31 g ai/ha): 35 | Plant response rating, Morningglory ([3]; 62 g ai/ha): 30 | Plant response rating, Morningglory ([3]; 125 g ai/ha): 20 | Plant response rating, Morningglory ([3]; 250 g ai/ha): 60 | Plant response rating, Velvetleaf ([4]; 62 g ai/ha): 40 | Plant response rating, Velvetleaf ([4]; 125 g ai/ha): 30 | Plant response rating, Velvetleaf ([4]; 250 g ai/ha): 45 | Plant response rating, Oilseed Rape ([5]; 31 g ai/ha): 80 | Plant response rating, Oilseed Rape ([5]; 62 g ai/ha): 80 | Plant response rating, Oilseed Rape ([5]; 125 g ai/ha): 90 | Plant response rating, Oilseed Rape ([5]; 250 g ai/ha): 90 | Plant response rating, Pigweed ([6]; 31 g ai/ha): 75 | Plant response rating, Pigweed ([6]; 62 g ai/ha): 85 | Plant response rating, Pigweed ([6]; 125 g ai/ha): 90 | Plant response rating, Pigweed ([6]; 250 g ai/ha): 100 | Plant response rating, Blackgrass ([7]; 31 g ai/ha): 70 | Plant response rating, Blackgrass ([7]; 62 g ai/ha): 90 | Plant response rating, Blackgrass ([7]; 125 g ai/ha): 90 | Plant response rating, Blackgrass ([7]; 250 g ai/ha): 95 | Plant response rating, Barnyardgrass ([8]; 31 g ai/ha): 85 | Plant response rating, Barnyardgrass ([8]; 62 g ai/ha): 95 | Plant response rating, Barnyardgrass ([8]; 125 g ai/ha): 95 | Plant response rating, Barnyardgrass ([8]; 250 g ai/ha): 98 | Plant response rating, Galium ([9]; 31 g ai/ha): 100 | Plant response rating, Galium ([9]; 62 g ai/ha): 100 | Plant response rating, Galium ([9]; 125 g ai/ha): 100 | Plant response rating, Galium ([9]; 250 g ai/ha): 100 | Plant response rating, Ryegrass, Italian ([10]; 62 g ai/ha): 85 | Plant response rating, Ryegrass, Italian ([10]; 125 g ai/ha): 85 | Plant response rating, Ryegrass, Italian ([10]; 250 g ai/ha): 65 | Plant response rating, Lambsquarters ([11]; 31 g ai/ha): 60 | Plant response rating, Lambsquarters ([11]; 62 g ai/ha): 75 | Plant response rating, Lambsquarters ([11]; 125 g ai/ha): 75 | Plant response rating, Lambsquarters ([11]; 250 g ai/ha): 85 | Plant response rating, Waterhemp ([12]; 62 g ai/ha): 85 | Plant response rating, Waterhemp ([12]; 125 g ai/ha): 90 | Plant response rating, Waterhemp ([12]; 250 g ai/ha): 90 | Plant response rating, Corn (corn (Zea mays); 31 g ai/ha): 0 | Plant response rating, Corn (corn (Zea mays); 62 g ai/ha): 40 | Plant response rating, Corn (corn (Zea mays); 125 g ai/ha): 65 | Plant response rating, Corn (corn (Zea mays); 250 g ai/ha): 90 | Plant response rating, Johnsongrass ([13]; 31 g ai/ha): 75 | Plant response rating, Johnsongrass ([13]; 62 g ai/ha): 95 | Plant response rating, Johnsongrass ([13]; 125 g ai/ha): 95 | Plant response rating, Johnsongrass ([13]; 250 g ai/ha): 90 | Plant response rating, Wheat ([14]; 62 g ai/ha): 60 | Plant response rating, Wheat ([14]; 125 g ai/ha): 70 | Plant response rating, Wheat ([14]; 250 g ai/ha): 60

CN1CC(c2cccc(OC(F)(F)C(F)F)c2)C(C(=O)Nc2ccccc2C(F)(F)F)C1=O (stereo not shown) [Compound 431]
Plant response rating, Crabgrass, Large ([1]; 31 g ai/ha): 98 | Plant response rating, Crabgrass, Large ([1]; 62 g ai/ha): 100 | Plant response rating, Crabgrass, Large ([1]; 125 g ai/ha): 100 | Plant response rating, Crabgrass, Large ([1]; 250 g ai/ha): 100 | Plant response rating, Ragweed ([2]; 31 g ai/ha): 50 | Plant response rating, Ragweed ([2]; 62 g ai/ha): 40 | Plant response rating, Ragweed ([2]; 125 g ai/ha): 40 | Plant response rating, Ragweed ([2]; 250 g ai/ha): 60 | Plant response rating, Soybean (soybean (Glycine max); 125 g ai/ha): 0 | Plant response rating, Morningglory ([3]; 31 g ai/ha): 0 | Plant response rating, Morningglory ([3]; 62 g ai/ha): 10 | Plant response rating, Morningglory ([3]; 125 g ai/ha): 10 | Plant response rating, Morningglory ([3]; 250 g ai/ha): 10 | Plant response rating, Velvetleaf ([4]; 62 g ai/ha): 25 | Plant response rating, Velvetleaf ([4]; 125 g ai/ha): 40 | Plant response rating, Velvetleaf ([4]; 250 g ai/ha): 30 | Plant response rating, Oilseed Rape ([5]; 31 g ai/ha): 10 | Plant response rating, Oilseed Rape ([5]; 62 g ai/ha): 60 | Plant response rating, Oilseed Rape ([5]; 125 g ai/ha): 85 | Plant response rating, Oilseed Rape ([5]; 250 g ai/ha): 90 | Plant response rating, Pigweed ([6]; 31 g ai/ha): 40 | Plant response rating, Pigweed ([6]; 62 g ai/ha): 60 | Plant response rating, Pigweed ([6]; 125 g ai/ha): 75 | Plant response rating, Pigweed ([6]; 250 g ai/ha): 85 | Plant response rating, Blackgrass ([7]; 31 g ai/ha): 60 | Plant response rating, Blackgrass ([7]; 62 g ai/ha): 85 | Plant response rating, Blackgrass ([7]; 125 g ai/ha): 90 | Plant response rating, Blackgrass ([7]; 250 g ai/ha): 98 | Plant response rating, Barnyardgrass ([8]; 31 g ai/ha): 90 | Plant response rating, Barnyardgrass ([8]; 62 g ai/ha): 95 | Plant response rating, Barnyardgrass ([8]; 125 g ai/ha): 95 | Plant response rating, Barnyardgrass ([8]; 250 g ai/ha): 98 | Plant response rating, Galium ([9]; 31 g ai/ha): 95 | Plant response rating, Galium ([9]; 62 g ai/ha): 90 | Plant response rating, Galium ([9]; 125 g ai/ha): 100 | Plant response rating, Galium ([9]; 250 g ai/ha): 90 | Plant response rating, Ryegrass, Italian ([10]; 62 g ai/ha): 10 | Plant response rating, Ryegrass, Italian ([10]; 125 g ai/ha): 15 | Plant response rating, Ryegrass, Italian ([10]; 250 g ai/ha): 70 | Plant response rating, Lambsquarters ([11]; 31 g ai/ha): 10 | Plant response rating, Lambsquarters ([11]; 62 g ai/ha): 40 | Plant response rating, Lambsquarters ([11]; 125 g ai/ha): 50 | Plant response rating, Lambsquarters ([11]; 250 g ai/ha): 65 | Plant response rating, Waterhemp ([12]; 62 g ai/ha): 75 | Plant response rating, Waterhemp ([12]; 125 g ai/ha): 85 | Plant response rating, Waterhemp ([12]; 250 g ai/ha): 90 | Plant response rating, Corn (corn (Zea mays); 31 g ai/ha): 0 | Plant response rating, Corn (corn (Zea mays); 62 g ai/ha): 35 | Plant response rating, Corn (corn (Zea mays); 125 g ai/ha): 50 | Plant response rating, Corn (corn (Zea mays); 250 g ai/ha): 65 | Plant response rating, Johnsongrass ([13]; 31 g ai/ha): 70 | Plant response rating, Johnsongrass ([13]; 62 g ai/ha): 75 | Plant response rating, Johnsongrass ([13]; 125 g ai/ha): 85 | Plant response rating, Johnsongrass ([13]; 250 g ai/ha): 90 | Plant response rating, Wheat ([14]; 62 g ai/ha): 5 | Plant response rating, Wheat ([14]; 125 g ai/ha): 70 | Plant response rating, Wheat ([14]; 250 g ai/ha): 90

CN1C[C@H](c2cccc(C(F)(F)F)c2)[C@@H](C(=O)Nc2cccnc2F)C1=O [Compound 1397]
pest or weed control at 15.625 g/ha ([15]; Echinochloa crus-galli, post-emergence, 312 h, 15.625 g ai/ha, evaluated after 13 days (100=total damage to plant; 0=no damage to plant), read-out: Barnyardgrass damage rating): 80% | pest or weed control at 62.5 g/ha ([15]; Echinochloa crus-galli, post-emergence, 312 h, 62.5 g ai/ha, evaluated after 13 days, read-out: Barnyardgrass damage rating (100=total damage to plant; 0=no damage to plant)): 80% | pest or weed control at 250 g/ha ([15]; Echinochloa crus-galli, post-emergence, 312 h, 250 g ai/ha, evaluated after 13 days, read-out: damage to plant, Barnyardgrass (100=total damage to plant; 0=no damage to plant)): 80%

CN1C[C@H](c2ccc(C(F)(F)F)cc2)[C@@H](C(=O)Nc2cccc(F)n2)C1=O [Compound 1400]
Barnyardgrass damage rating ([15]; 15.625 g ai/ha, evaluated after 13 days (100=total damage to plant; 0=no damage to plant)): 50 | Barnyardgrass damage rating (100=total damage to plant; 0=no damage to plant) ([15]; 62.5 g ai/ha, evaluated after 13 days): 70 | damage to plant, Barnyardgrass (100=total damage to plant; 0=no damage to plant) ([15]; 250 g ai/ha, evaluated after 13 days): 70
